Test results taken from publication PMC11486130, “Structure-guided discovery of novel dUTPase inhibitors with anti-Nocardia activity by computational design” (Journal of Enzyme Inhibition and Medicinal Chemistry, 2024).
Converted amounts (≈) assume the structure as drawn. Read-outs that look alike come from different tables or passages of the source.

Key:
NsdUTPase = NsdUTPase (Nocardia seriolae, UniProt A0ABF7PKI9); assay: NsdUTPase activity assay (PPi Light inorganic pyrophosphate assay kit); type: biochemical; settings: for activity improvement: NsdUTPase IC50 compared with F0414
Protocol: The in vitro catalytic activity of NsdUTPase was detected by a PPi Light inorganic pyrophosphate assay kit following manufactory’s manual. […] After 120 min of incubation at room temperature, the luminescence intensity of the reaction was measured by a microplate luminometer at 560 nm.
IC50 was determined using GraphPad Prism software 9 (GraphPad Software, San Diego, CA). All experiments were performed in triplicate, and values (±standard deviations [SD]) are shown. Significant differences were determined using Student’s t-test. *p < 0.05 (considered significant compared with control group); **p < 0.01 (considered highly significant); ***p < 0.001 (considered extremely significant).

[1] = test system: N. salmonicida strain JCM4826; assay: anti-Nocardia activity, microplate alamar blue assay (MABA); type: cell-based; settings: two days at 25 °C; for MIC: 48 h
Protocol: (§1) The MABA method was used to determine the anti-Nocardia activity of compounds according to reported method[34] with modification. N. seriolae strain JCM3360, and N. salmonicida strain JCM4826 were gifted from Prof. Nien, Chung-Yi (National Central University, Taoyuan City, Taiwan), and cultured in M-196 medium (0.4% yeast extract; 1% malt extract; 0.4% dextrose) at 25 °C. Two strains were inoculated into 96-well plates at a concentration of ×10^6 CFU/mL and cultured in the medium, then different concentrations of compounds were added. After two days of incubation at 25 °C, the mixture of 20 μL 10× alamar blue and 50 μL 5% Tween-80 were added to observe the colour change. Minimum inhibitory concentration (MIC) is defined as the minimum compound concentration of the well varying from blue to pink.

[2] = test system: N. seriolae strain JCM3360; assay: as above; type: cell-based; settings: two days at 25 °C; for MIC: 48 h
Protocol: as §1

NsdUTPase WT = target: T1, NsdUTPase WT (Nocardia seriolae, UniProt A0ABF7PKI9); assay: Kd to WT NsdUTPase; type: binding, N. seriolae
T1 sequence (A0ABF7PKI9 1-166): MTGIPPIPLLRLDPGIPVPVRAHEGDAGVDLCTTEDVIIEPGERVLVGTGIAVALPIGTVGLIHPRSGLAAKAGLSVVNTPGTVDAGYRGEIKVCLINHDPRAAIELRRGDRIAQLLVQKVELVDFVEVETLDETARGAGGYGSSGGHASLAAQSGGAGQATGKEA

[3] = Cytotoxicity, CCK-8 assay; type: cell-based; settings: concentration 30 µM (about 10.0 mg/L), read-out: cell viability
Protocol: The cytotoxicity of compounds 4b and 12b was determined by CCK-8 assay. A549 and Marc cells were cultured for the test. Concentrations of compounds varied from 0.03 to 30 µM. Meanwhile, 1% DMSO was used as a negative control. After incubation for 24 h, WST-8 was added. The experimental method referred to the kit instructions. All the experiments were repeated three times.

[4] = in vitro enzyme inhibitory activity, read-out: IC50 against NsdUTPase
[5] = African green monkey, Marc cells

Compound: 1-(Cyclopropylmethyl)-2-(4-phenoxyphenyl)-5-(trifluoromethyl)-1H-benzo[d]imidazole [12f]
- IC50 (NsdUTPase; [4]): > 20 µM
- MIC N. salmonicida [1]: 8 mg/L
- MIC N. seriolae [2]: 16 mg/L

Compound: 1-Allyl-6-fluoro-5-methyl-2-(6-phenoxypyridin-3-yl)-1H-benzo[d]imidazole [12i]
- IC50 (NsdUTPase; [4]): 7.84 µM
- MIC N. salmonicida [1]: 4 mg/L
- MIC N. seriolae [2]: 4 mg/L

Compound: C=CCn1c(/C=C/c2ccccc2)nc2cc(C(F)(F)F)ccc21 [4b, (E)-1-Allyl-2-styryl-5-(trifluoromethyl)-1H-benzo[d]imidazole]
- Kd (NsdUTPase WT): 10.3 µM
- IC50 (NsdUTPase): 0.99 µM
- activity improvement (NsdUTPase): more than 20 fold
- MIC [1]: 0.5 mg/L (≈ 1.52 µM)
- MIC [2]: 1 mg/L (≈ 3.05 µM)
- viability at 24 h, 30 µM [3, 5]: > 70%
- viability at 24 h, 30 µM ([3]; human, A549 cells): > 70%

Compound: C=CCn1c(/C=C/c2ccccc2)nc2c(C)cccc21 [4d, (E)-1-Allyl-4-methyl-2-styryl-1H-benzo[d]imidazole]
- IC50 (NsdUTPase; [4]): > 20 µM
- MIC [1]: 16 mg/L (≈ 58.3 µM)
- MIC [2]: 16 mg/L (≈ 58.3 µM)

Compound: C=CCn1c(/C=C/c2ccccc2)nc2cc(C#N)ccc21 [4e, (E)-1-Allyl-2-styryl-1H-benzo[d]imidazole-5-carbonitrile]
- IC50 (NsdUTPase; [4]): > 20 µM
- MIC [1]: 16 mg/L (≈ 56.1 µM)
- MIC [2]: > 50 mg/L

Compound: C=CCn1c(/C=C/c2ccc(N(C)C)cc2)nc2ccccc21 [4g, (E)-4-(2-(1-Allyl-1H-benzo[d]imidazol-2-yl)vinyl)-N,N-dimethylaniline]
- IC50 (NsdUTPase; [4]): 2.98 µM
- MIC [1]: 16 mg/L (≈ 52.7 µM)
- MIC [2]: > 50 mg/L

Compound: C=CCn1c(/C=C/c2ccccc2)nc2cc(C(=O)c3ccccc3)ccc21 [4h, (E)-(1-Allyl-2-styryl-1H-benzo[d]imidazol-5-yl)(phenyl)methanone]
- IC50 (NsdUTPase; [4]): 9.62 µM
- MIC [1]: 8 mg/L (≈ 22 µM)
- MIC [2]: 8 mg/L (≈ 22 µM)

Compound: C=CCn1c(/C=C/c2ccccc2OC)nc2cc(C(=O)c3ccccc3)ccc21 [4i, (E)-(1-Allyl-2-(2-methoxystyryl)-1H-benzo[d]imidazol-5-yl)(phenyl)methanone]
- IC50 (NsdUTPase; [4]): 7.54 µM
- MIC [1]: 4 mg/L (≈ 10.1 µM)
- MIC [2]: 8 mg/L (≈ 20.3 µM)

Compound: C=CCn1c(-c2ccc(Oc3ccccc3)cc2)nc2ccccc21 [8a, 1-Allyl-2-(4-phenoxyphenyl)-1H-benzo[d]imidazole]
- IC50 (NsdUTPase; [4]): 2.61 µM
- MIC [1]: 4 mg/L (≈ 12.3 µM)
- MIC [2]: 4 mg/L (≈ 12.3 µM)

Compound: C=CCn1c(-c2ccc(-c3ccccc3)cc2)nc2ccccc21 [8b, 2-([1,1′-Biphenyl]-4-yl)-1-allyl-1H-benzo[d]imidazole]
- MIC [1]: 4 mg/L (≈ 12.9 µM)
- MIC [2]: 4 mg/L (≈ 12.9 µM)

Compound: C=CCn1c(/C(C)=C/c2ccccc2)nc2ccccc21 [8c, (E)-1-Allyl-2-(1-phenylprop-1-en-2-yl)-1H-benzo[d]imidazole]
- IC50 (NsdUTPase; [4]): > 20 µM
- MIC [1]: 4 mg/L (≈ 14.6 µM)
- MIC [2]: 8 mg/L (≈ 29.2 µM)

Compound: C=CCn1c(-c2cccc(Oc3ccccc3)c2)nc2ccccc21 [8d, 1-Allyl-2-(3-phenoxyphenyl)-1H-benzo[d]imidazole]
- IC50 (NsdUTPase; [4]): 15.7 µM
- MIC [1]: 32 mg/L (≈ 98 µM)
- MIC [2]: > 50 mg/L

Compound: C=CCn1c(-c2ccc3ccccc3c2)nc2ccccc21 [8e, 1-Allyl-2-(naphthalen-2-yl)-1H-benzo[d]imidazole]
- IC50 (NsdUTPase; [4]): 10.5 µM
- MIC [1]: 4 mg/L (≈ 14.1 µM)
- MIC [2]: 4 mg/L (≈ 14.1 µM)

Compound: C=CCn1c(-c2ccc(Oc3ccccc3)cc2)nc2cc(C(F)(F)F)ccc21 [12a, 1-Allyl-2-(4-phenoxyphenyl)-5-(trifluoromethyl)-1H-benzo[d]imidazole]
- IC50 (NsdUTPase; [4]): 8.36 µM
- MIC [1]: 16 mg/L (≈ 40.6 µM)
- MIC [2]: > 50 mg/L

Compound: C=CCn1c(-c2ccc(Oc3ccccc3)cc2)nc2cc(C)ccc21 [12b, 1-Allyl-5-methyl-2-(4-phenoxyphenyl)-1H-benzo[d]imidazole]
- Kd (NsdUTPase WT): 7.49 µM
- IC50 (NsdUTPase): 0.7 µM
- activity improvement (NsdUTPase): more than 20 fold
- MIC [1]: 1 mg/L (≈ 2.94 µM)
- MIC [2]: 2 mg/L (≈ 5.87 µM)
- viability at 24 h, 30 µM [3, 5]: > 70%
- viability at 24 h, 30 µM ([3]; human, A549 cells): > 70%

Compound: C=CCn1c(-c2ccc(Oc3ccccc3)cc2)nc2cc(C(=O)c3ccccc3)ccc21 [12c, (1-Allyl-2-(4-phenoxyphenyl)-1H-benzo[d]imidazol-5-yl)(phenyl)methanone]
- IC50 (NsdUTPase; [4]): 15.4 µM
- MIC [1]: 8 mg/L (≈ 18.6 µM)
- MIC [2]: 16 mg/L (≈ 37.2 µM)

Compound: C=CCn1c(-c2ccc(Oc3ccccc3)cc2)nc2cc(C)c(C)cc21 [12d, 1-Allyl-5,6-dimethyl-2-(4-phenoxyphenyl)-1H-benzo[d]imidazole]
- IC50 (NsdUTPase; [4]): 3.71 µM
- MIC [1]: 4 mg/L (≈ 11.3 µM)
- MIC [2]: 8 mg/L (≈ 22.6 µM)

Compound: C#CCn1c(-c2ccc(Oc3ccccc3)cc2)nc2cc(C(F)(F)F)ccc21 [12e, 2-(4-Phenoxyphenyl)-1-(prop-2-yn-1-yl)-5-(trifluoromethyl)-1H-benzo[d]imidazole]
- IC50 (NsdUTPase; [4]): 14.8 µM
- MIC [1]: 16 mg/L (≈ 40.8 µM)
- MIC [2]: 32 mg/L (≈ 81.6 µM)

Compound: C=CCn1c(-c2ccc(Oc3cccnc3)cc2)nc2cc(C(F)(F)F)ccc21 [12g, 1-Allyl-2-(4-(pyridin-3-yloxy)phenyl)-5-(trifluoromethyl)-1H-benzo[d]imidazole]
- IC50 (NsdUTPase; [4]): > 20 µM
- MIC [1]: 32 mg/L (≈ 80.9 µM)
- MIC [2]: > 50 mg/L

Compound: C=CCn1c(-c2ccc(Oc3ccccc3)nc2)nc2cc(C(F)(F)F)ccc21 [12h, 1-Allyl-2-(6-phenoxypyridin-3-yl)-5-(trifluoromethyl)-1H-benzo[d]imidazole]
- IC50 (NsdUTPase; [4]): > 20 µM
- MIC [1]: 32 mg/L (≈ 80.9 µM)
- MIC [2]: > 50 mg/L

Compound: C=CCn1c(/C=C/c2ccccc2)nc2ccccc21 [F0414, (E)-1-Allyl-2-styryl-1H-benzo[d]imidazole, reference compound]
- IC50 (NsdUTPase; [4]): > 20 µM
- MIC [1]: 2 mg/L (≈ 7.68 µM)
- MIC [2]: 8 mg/L (≈ 30.7 µM)

Compound: CS(=O)(=O)c1ccc([C@@H](O)[C@@H](CF)NC(=O)C(Cl)Cl)cc1 [Florfenicol, reference compound]
- MIC [1]: 16 mg/L (≈ 44.7 µM)
- MIC [2]: 4 mg/L (≈ 11.2 µM)

Compound: CN(C)[C@@H]1C(O)=C(C(N)=O)C(=O)[C@@]2(O)C(O)=C3C(=O)c4c(O)cccc4[C@@](C)(O)[C@H]3[C@H](O)[C@@H]12 [Oxytetracycline, reference compound]
- MIC [1]: 4 mg/L (≈ 8.69 µM)
- MIC [2]: 1 mg/L (≈ 2.17 µM)

Compound: COc1cc(NS(=O)(=O)c2ccc(N)cc2)nc(OC)n1 [Sulfadimethoxine, reference compound]
- MIC [1]: 12.5 mg/L (≈ 40.3 µM)
- MIC [2]: > 50 mg/L
- MIC N. seriolae [2]: >50 mg/L

Compound: Cc1ccnc(NS(=O)(=O)c2ccc(N)cc2)n1 [Sulfamerazin, reference compound]
- MIC N. salmonicida [1]: >50 mg/L
- MIC N. seriolae [2]: >50 mg/L
- MIC N. seriolae ([2]; listed as sulfamerazin): > 50 mg/L

Compound: (E)-1-Allyl-2-styryl-1H-benzo[d]imidazol-5-yl acetate [4f]
- IC50 (NsdUTPase; [4]): 18.3 µM
- MIC N. salmonicida [1]: 32 mg/L
- MIC N. seriolae [2]: >50 mg/L

Compound: (E)-1-Allyl-2-styryl-1H-benzo[d]imidazole [4a]
- IC50 (NsdUTPase; [4]): 2.65 µM
- MIC N. salmonicida [1]: 2 mg/L
- MIC N. seriolae [2]: 4 mg/L

Compound: (E)-1-Allyl-2-styryl-1H-benzo[d]imidazole [4c]
- IC50 (NsdUTPase; [4]): 3.78 µM
- MIC N. salmonicida [1]: 16 mg/L
- MIC N. seriolae [2]: >50 mg/L
